# Experimental data taken from patent publication US8653041B2, “Antibacterial aminoglycoside analogs” (Achaogen, Inc., priority 2010, dated 2014).
# Where two headings read alike, the source gives them in different places.
# Assays:
# [1] = system: Pseudomonas aeruginosa; assay: MIC, CLSI broth microdilution, Pseudomonas aeruginosa panel; format: cell-based; details: Pseudomonas aeruginosa, read-out: MIC
# Protocol: (§1) Minimum inhibitory concentrations (MIC) were determined by reference Clinical and Laboratory Standards Institute (CLSI) broth microdilution methods per M7-A7 [2006]. Quality control ranges utilizing E. coli ATCC 25922, P. aeruginosa ATCC 27853 and S. aureus ATCC 29213, and interpretive criteria for comparator agents were as published in CLSI M100-S17 [2007]. Briefly, serial two-fold dilutions of the test compounds were prepared at 2× concentration in Mueller Hinton Broth. The compound dilutions were mixed in 96-well assay plates in a 1:1 ratio with bacterial inoculum. The inoculum was prepared by suspension of a colony from an agar plate that was prepared the previous day. Bacteria were suspended in sterile saline and added to each assay plate to obtain a final concentration of 5×10^5 CFU/mL. The plates were incubated at 35 C for 20 hours in ambient air.
# The MIC panel presented in Table 1 contains 27 isolates of Pseudomonas aeruginosa: strains 1-22 are clinical isolates from around the world collected between 2004-2007 which contain representative resistance mechanisms commonly found in Pseudomonas, such as the AAC(6′)-I, AAC(6′)-II, APH(3′)-IIb, ANT(2″)-I, and perm/efflux; strains 23-27 are susceptible.
# [2] = system: Acinetobacter baumannii; assay: MIC, CLSI broth microdilution, Acinetobacter baumannii panel; format: cell-based; details: Acinetobacter baumannii, read-out: MIC
# Protocol: as §1
# The MIC panel presented in Table 2 contains 29 isolates of Acinetobacter baumannii: strains 1-24 are clinical isolates from around the world collected between 2004-2007 which contain representative resistance mechanisms commonly found in Acinetobacter baumannii, such as AAC(3)-I and II, AAC(6′)-I, ANT(2″)-I, APH(3′)-VI, and perm/efflux; strains 25-29 are susceptible.
# [3] = 14-day rat toxicology (nephrotoxicity), once-daily subcutaneous injection
# Protocol: The study design utilized once-daily subcutaneous injection administration to the rat for 14 days and assessment of reversibility of any changes following a 28-day recovery period.
# The dose volume administered to each animal was 1 mL/kg.
structure (smiles),measurement,setting,value
NC[C@@H]1O[C@H](O[C@H]2[C@@H](O)[C@H](O[C@@H]3[C@@H](O)[C@H](NC(=O)[C@@H](O)CN)C[C@H](N)[C@H]3O[C@H]3O[C@H](CNCCO)[C@@H](O)C[C@H]3N)O[C@@H]2CO)[C@H](N)[C@@H](O)[C@@H]1O [Compound 20],MIC,[1]; P. aeruginosa clinical strain 1 (resistant clinical isolate),≤ 1 µg/mL
same,MIC,[1]; P. aeruginosa clinical strain 2 (resistant clinical isolate),≤ 1 µg/mL
same,MIC,[1]; P. aeruginosa clinical strain 3 (resistant clinical isolate),1 to 8 µg/mL
same,MIC,[1]; P. aeruginosa clinical strain 4 (resistant clinical isolate),1 to 8 µg/mL
same,MIC,[1]; P. aeruginosa clinical strain 5 (resistant clinical isolate),1 to 8 µg/mL
same,MIC,[1]; P. aeruginosa clinical strain 6 (resistant clinical isolate),1 to 8 µg/mL
same,MIC,[1]; P. aeruginosa clinical strain 7 (resistant clinical isolate),≤ 1 µg/mL
same,MIC,[1]; P. aeruginosa clinical strain 8 (resistant clinical isolate),1 to 8 µg/mL
same,MIC,[1]; P. aeruginosa clinical strain 9 (resistant clinical isolate),≤ 1 µg/mL
same,MIC,[1]; P. aeruginosa clinical strain 10 (resistant clinical isolate),1 to 8 µg/mL
same,MIC,[1]; P. aeruginosa clinical strain 11 (resistant clinical isolate),≤ 1 µg/mL
same,MIC,[1]; P. aeruginosa clinical strain 12 (resistant clinical isolate),≤ 1 µg/mL
same,MIC,[1]; P. aeruginosa clinical strain 13 (resistant clinical isolate),8 to 16 µg/mL
same,MIC,[1]; P. aeruginosa clinical strain 14 (resistant clinical isolate),≤ 1 µg/mL
same,MIC,[1]; P. aeruginosa clinical strain 15 (resistant clinical isolate),1 to 8 µg/mL
same,MIC,[1]; P. aeruginosa clinical strain 16 (resistant clinical isolate),≤ 1 µg/mL
same,MIC,[1]; P. aeruginosa clinical strain 17 (resistant clinical isolate),1 to 8 µg/mL
same,MIC,[1]; P. aeruginosa clinical strain 18 (resistant clinical isolate),1 to 8 µg/mL
same,MIC,[1]; P. aeruginosa clinical strain 19 (resistant clinical isolate),16 to 32 µg/mL
same,MIC,[1]; P. aeruginosa clinical strain 20 (resistant clinical isolate),16 to 32 µg/mL
same,MIC,[1]; P. aeruginosa clinical strain 21 (resistant clinical isolate),1 to 8 µg/mL
same,MIC,[1]; P. aeruginosa clinical strain 22 (resistant clinical isolate),1 to 8 µg/mL
same,MIC,[1]; P. aeruginosa strain 23 (susceptible),≤ 1 µg/mL
same,MIC,[1]; P. aeruginosa strain 24 (susceptible),≤ 1 µg/mL
same,MIC,[1]; P. aeruginosa strain 25 (susceptible),≤ 1 µg/mL
same,MIC,[1]; P. aeruginosa strain 26 (susceptible),≤ 1 µg/mL
same,MIC,[1]; P. aeruginosa strain 27 (susceptible),≤ 1 µg/mL
same,MIC,[2]; A. baumannii clinical strain 1 (resistant clinical isolate),1 to 8 µg/mL
same,MIC,[2]; A. baumannii clinical strain 2 (resistant clinical isolate),1 to 8 µg/mL
same,MIC,[2]; A. baumannii clinical strain 3 (resistant clinical isolate),≤ 1 µg/mL
same,MIC,[2]; A. baumannii clinical strain 4 (resistant clinical isolate),16 to 32 µg/mL
same,MIC,[2]; A. baumannii clinical strain 5 (resistant clinical isolate),≤ 1 µg/mL
same,MIC,[2]; A. baumannii clinical strain 6 (resistant clinical isolate),1 to 8 µg/mL
same,MIC,[2]; A. baumannii clinical strain 7 (resistant clinical isolate),≤ 1 µg/mL
same,MIC,[2]; A. baumannii clinical strain 8 (resistant clinical isolate),≤ 1 µg/mL
same,MIC,[2]; A. baumannii clinical strain 9 (resistant clinical isolate),≤ 1 µg/mL
same,MIC,[2]; A. baumannii clinical strain 10 (resistant clinical isolate),1 to 8 µg/mL
same,MIC,[2]; A. baumannii clinical strain 11 (resistant clinical isolate),≤ 1 µg/mL
same,MIC,[2]; A. baumannii clinical strain 12 (resistant clinical isolate),≤ 1 µg/mL
same,MIC,[2]; A. baumannii clinical strain 13 (resistant clinical isolate),≤ 1 µg/mL
same,MIC,[2]; A. baumannii clinical strain 14 (resistant clinical isolate),≤ 1 µg/mL
same,MIC,[2]; A. baumannii clinical strain 15 (resistant clinical isolate),≤ 1 µg/mL
same,MIC,[2]; A. baumannii clinical strain 16 (resistant clinical isolate),1 to 8 µg/mL
same,MIC,[2]; A. baumannii clinical strain 17 (resistant clinical isolate),1 to 8 µg/mL
same,MIC,[2]; A. baumannii clinical strain 18 (resistant clinical isolate),1 to 8 µg/mL
same,MIC,[2]; A. baumannii clinical strain 19 (resistant clinical isolate),1 to 8 µg/mL
same,MIC,[2]; A. baumannii clinical strain 20 (resistant clinical isolate),1 to 8 µg/mL
same,MIC,[2]; A. baumannii clinical strain 21 (resistant clinical isolate),≤ 1 µg/mL
same,MIC,[2]; A. baumannii clinical strain 22 (resistant clinical isolate),8 to 16 µg/mL
same,MIC,[2]; A. baumannii clinical strain 23 (resistant clinical isolate),≤ 1 µg/mL
same,MIC,[2]; A. baumannii clinical strain 24 (resistant clinical isolate),1 to 8 µg/mL
same,MIC,[2]; A. baumannii strain 25 (susceptible),≤ 1 µg/mL
same,MIC,[2]; A. baumannii strain 26 (susceptible),≤ 1 µg/mL
same,MIC,[2]; A. baumannii strain 27 (susceptible),≤ 1 µg/mL
same,MIC,[2]; A. baumannii strain 28 (susceptible),≤ 1 µg/mL
same,MIC,[2]; A. baumannii strain 29 (susceptible),≤ 1 µg/mL
same,mortality,"[3]; 10, 30 or 100 mg/kg/day subcutaneous, once daily, 14 days, Sprague-Dawley rat",did not result in mortality at any dose
same,macroscopic or microscopic changes to the kidneys,"[3]; rat, in vivo",nor any significant macroscopic or microscopic changes to the kidneys
